# Data taken from publication PMC11409059, “Substitution of Glu378 in EF-Tu disrupts binding to KKL-55” (microPublication Biology, 2024).
# pKd: −log10 of the molar value.
# Biological target: EF-Tu (6His-tagged EF-Tu, tufA) (Escherichia coli, UniProt P0CE47, E379A)
# Test: biochemical
structure (smiles),measurement,value
CCCn1nnnc1NC(=O)c1cccc(Cl)c1 [KKL-55],pKd,5.62
